One experiment relates to brains, heart, liver, muscle, and DRG of the NHPs. The experiment in a line: Maturation of TTM-001 and TTM-002 capsids, NGS enrichment in NHP tissues. The following applies: NGS fold-enrichment of RNA, NHP brain, relative to AAV9 control. The format is in vivo. The procedure, abridged: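 Variants carry mutations within and flanking the loop IV peptide insert: positions 450–466 were triplet-randomized, while positions 449–466 received low-frequency point mutations. The combined pool went into two NHPs, and each peptide was scored by NGS enrichment ratio against AAV9.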
Consider KTINGGGSPHSKAQNQQC, for which the “Fold Enrichment relative to AAV9, Brain (NHP)” value amounted to 89.301 fold.
The same measure, in the same setting: with KTEKVSGSPHSKAQNQQT the figure was 84.558 fold.

The same experiment, now with this note: NGS fold-enrichment of matured AAV capsid variants; NHP brain, RNA; relative to AAV9 control.
With KAETGSGSPHSKAQNQQT, the “Fold Enrichment relative to AAV9, Brain (NHP)” value came to 52.219 fold.
On to KTINGSGSPHSKAQMPNT, for which the “Fold Enrichment relative to AAV9, Brain (NHP)” value was 52.408 fold.

Still in this experiment, the particulars now being: NGS fold-enrichment, DRG of NHPs, relative to AAV9 control.
For the sequence KTINGSGSPHTKAQNPQS, the “Fold Enrichment relative to AAV9, DRG (NHP)” value is 0.000 fold.
For KTVIGSGSPHSKALNQQT, the “Fold Enrichment relative to AAV9, DRG (NHP)” value was 0.000 fold.
In the case of KTINGGGSPHSKAQNQQC, the “Fold Enrichment relative to AAV9, DRG (NHP)” value was 0.219 fold.
On to KTINGSGSPHSKAQGIRT, for which the “Fold Enrichment relative to AAV9, DRG (NHP)” value is given as 0.041 fold.
Turning to KTEKVSGSPHSKAQNQQT, the “Fold Enrichment relative to AAV9, DRG (NHP)” value is recorded as 0.000 fold.

Still in this experiment, the particulars now being: NGS fold-enrichment, NHP DRG, relative to AAV9 control.
Take KTINGGGSPHSKAQNQQC: the “Fold Enrichment relative to AAV9, DRG (NHP)” value is 0.219 fold.
Regarding KTEKVSGSPHSKAQNQQT, the “Fold Enrichment relative to AAV9, DRG (NHP)” value came out at 0.000 fold.

Still in this experiment, the particulars now being: NGS fold-enrichment, NHP heart, relative to AAV9 control.
Regarding KTINGGGSPHSKAQNQQC, the “Fold Enrichment relative to AAV9, Heart (NHP)” value is reported as 0.000 fold.
In the case of KTEKVSGSPHSKAQNQQT, the “Fold Enrichment relative to AAV9, Heart (NHP)” value came out at 0.022 fold.

The same experiment, now with this note: NGS fold-enrichment, NHP liver DNA, relative to AAV9 control.
Consider KTINGGGSPHSKAQNQQC, for which the “Fold Enrichment relative to AAV9, Liver DNA (NHP)” value is given as 0.319 fold.
Regarding KTEKVSGSPHSKAQNQQT, the “Fold Enrichment relative to AAV9, Liver DNA (NHP)” value is recorded as 0.424 fold.

The same experiment, now with this note: NGS fold-enrichment, NHP liver RNA, relative to AAV9 control.
KTINGGGSPHSKAQNQQC: the “Fold Enrichment relative to AAV9, Liver RNA (NHP)” value turned out to be 0.287 fold.
Same read-out and setting: in the case of KTEKVSGSPHSKAQNQQT it was 0.873 fold.

Still in this experiment, the particulars now being: NGS fold-enrichment, NHP muscle, relative to AAV9 control.
Take KTINGGGSPHSKAQNQQC: the “Fold Enrichment relative to AAV9, Muscle (NHP)” value turned out to be 0.000 fold.
As for KTEKVSGSPHSKAQNQQT, the “Fold Enrichment relative to AAV9, Muscle (NHP)” value came out at 0.000 fold.

The same experiment, now with this note: NGS fold-enrichment, RNA, brain of NHPs, relative to AAV9 control.
With KTINGSGSPHTKAQNPQS, the “Fold Enrichment relative to AAV9, Brain (NHP)” value was found to be 72.594 fold.
On to KTVIGSGSPHSKALNQQT, for which the “Fold Enrichment relative to AAV9, Brain (NHP)” value worked out at 62.358 fold.
In the case of KTINGGGSPHSKAQNQQC, the “Fold Enrichment relative to AAV9, Brain (NHP)” value worked out at 89.301 fold.
Regarding KTINGSGSPHSKAQGIRT, the “Fold Enrichment relative to AAV9, Brain (NHP)” value was 61.952 fold.
As for KTEKVSGSPHSKAQNQQT, the “Fold Enrichment relative to AAV9, Brain (NHP)” value turned out to be 84.558 fold.

Still in this experiment, the particulars now being: NGS fold-enrichment, heart of NHPs, relative to AAV9 control.
As to KTINGSGSPHTKAQNPQS, the “Fold Enrichment relative to AAV9, Heart (NHP)” value came out at 0.000 fold.
With KTVIGSGSPHSKALNQQT, the “Fold Enrichment relative to AAV9, Heart (NHP)” value is recorded as 0.310 fold.
On to KTINGGGSPHSKAQNQQC, for which the “Fold Enrichment relative to AAV9, Heart (NHP)” value was 0.000 fold.
With KTINGSGSPHSKAQGIRT, the “Fold Enrichment relative to AAV9, Heart (NHP)” value amounted to 0.000 fold.
On to KTEKVSGSPHSKAQNQQT, for which the “Fold Enrichment relative to AAV9, Heart (NHP)” value was determined as 0.022 fold.

The experiment is the same for the next values; noted with them: NGS fold-enrichment, liver DNA of NHPs, relative to AAV9 control.
For the sequence KTINGSGSPHTKAQNPQS, the “Fold Enrichment relative to AAV9, Liver DNA (NHP)” value is 0.130 fold.
As for KTVIGSGSPHSKALNQQT, the “Fold Enrichment relative to AAV9, Liver DNA (NHP)” value is on record as 0.245 fold.
Consider KTINGGGSPHSKAQNQQC, for which the “Fold Enrichment relative to AAV9, Liver DNA (NHP)” value is 0.319 fold.
Still for that read-out and setting: in the case of KTINGSGSPHSKAQGIRT it was 0.502 fold; in that of KTEKVSGSPHSKAQNQQT, 0.424 fold.

The same experiment, now with this note: NGS fold-enrichment, liver RNA of NHPs, relative to AAV9 control.
Consider KTINGSGSPHTKAQNPQS, for which the “Fold Enrichment relative to AAV9, Liver RNA (NHP)” value was 0.000 fold.
As for KTVIGSGSPHSKALNQQT, the “Fold Enrichment relative to AAV9, Liver RNA (NHP)” value worked out at 0.062 fold.
For KTINGGGSPHSKAQNQQC, the “Fold Enrichment relative to AAV9, Liver RNA (NHP)” value turned out to be 0.287 fold.
The same measure, in the same setting: in the case of KTINGSGSPHSKAQGIRT it was 0.897 fold.
With KTEKVSGSPHSKAQNQQT, the “Fold Enrichment relative to AAV9, Liver RNA (NHP)” value worked out at 0.873 fold.

Still in this experiment, the particulars now being: NGS fold-enrichment, muscle of NHPs, relative to AAV9 control.
Consider KTINGSGSPHTKAQNPQS, for which the “Fold Enrichment relative to AAV9, Muscle (NHP)” value was found to be 0.000 fold.
For the sequence KTVIGSGSPHSKALNQQT, the “Fold Enrichment relative to AAV9, Muscle (NHP)” value amounted to 0.000 fold.
Turning to KTINGGGSPHSKAQNQQC, the “Fold Enrichment relative to AAV9, Muscle (NHP)” value came to 0.000 fold.
Regarding KTINGSGSPHSKAQGIRT, the “Fold Enrichment relative to AAV9, Muscle (NHP)” value was 0.012 fold.
KTEKVSGSPHSKAQNQQT: the “Fold Enrichment relative to AAV9, Muscle (NHP)” value amounted to 0.000 fold.

Still in this experiment, the particulars now being: NHP DRG; relative to AAV9 control.
Consider KAETGSGSPHSKAQNQQT, for which the “Fold Enrichment relative to AAV9, DRG (NHP)” value was found to be 0.000 fold.
For the sequence KTINGSGSPHSKAQMPNT, the “Fold Enrichment relative to AAV9, DRG (NHP)” value was determined as 0.084 fold.

The experiment is the same for the next values; noted with them: NHP heart; relative to AAV9 control.
KAETGSGSPHSKAQNQQT: the “Fold Enrichment relative to AAV9, Heart (NHP)” value is on record as 0.047 fold.
As for KTINGSGSPHSKAQMPNT, the “Fold Enrichment relative to AAV9, Heart (NHP)” value was 0.036 fold.

The experiment is the same for the next values; noted with them: NHP liver, DNA; relative to AAV9 control.
KAETGSGSPHSKAQNQQT: the “Fold Enrichment relative to AAV9, Liver DNA (NHP)” value was 0.188 fold.
On to KTINGSGSPHSKAQMPNT, for which the “Fold Enrichment relative to AAV9, Liver DNA (NHP)” value is recorded as 0.359 fold.

Still in this experiment, the particulars now being: NHP liver, RNA; relative to AAV9 control.
With KAETGSGSPHSKAQNQQT, the “Fold Enrichment relative to AAV9, Liver RNA (NHP)” value was found to be 0.009 fold.
As for KTINGSGSPHSKAQMPNT, the “Fold Enrichment relative to AAV9, Liver RNA (NHP)” value turned out to be 0.057 fold.

Still in this experiment, the particulars now being: NHP muscle; relative to AAV9 control.
As for KAETGSGSPHSKAQNQQT, the “Fold Enrichment relative to AAV9, Muscle (NHP)” value came out at 0.581 fold.
Take KTINGSGSPHSKAQMPNT: the “Fold Enrichment relative to AAV9, Muscle (NHP)” value is 0.025 fold.

The subject of a further experiment is brain. The experiment in a line: Matured TTM-001 and TTM-002 variants, NGS enrichment in mouse brain. The following applies: NGS fold-enrichment, brain of mice, relative to AAV9 control. The class given is in vivo, mice.
Regarding KTINGSGSPHTKAQNPQS, the “Fold Enrichment relative to AAV9, Brain (Mouse)” value turned out to be 62.508 fold.
On to KTVIGSGSPHSKALNQQT, for which the “Fold Enrichment relative to AAV9, Brain (Mouse)” value is given as 60.369 fold.
The same measure, in the same setting: with KTINGGGSPHSKAQNQQC the figure was 53.840 fold.
Turning to KTINGSGSPHSKAQGIRT, the “Fold Enrichment relative to AAV9, Brain (Mouse)” value is listed as 155.013 fold.
In the case of KTEKVSGSPHSKAQNQQT, the “Fold Enrichment relative to AAV9, Brain (Mouse)” value was 112.185 fold.

The experiment is the same for the next values; noted with them: NGS fold-enrichment, mouse brain, relative to AAV9 control.
On to KTINGGGSPHSKAQNQQC, for which the “Fold Enrichment relative to AAV9, Brain (Mouse)” value is 53.840 fold.
Still for that read-out and setting: with KTEKVSGSPHSKAQNQQT the figure was 112.185 fold.

Staying with this experiment, now noted: mouse brain; relative to AAV9 control.
On to KAETGSGSPHSKAQNQQT, for which the “Fold Enrichment relative to AAV9, Brain (Mouse)” value is given as 132.940 fold.
The same measure, in the same setting: with KTINGSGSPHSKAQMPNT the figure was 66.040 fold.

The values are drawn from US20260250318A1, “COMPOSITIONS AND METHODS FOR CROSSING THE BLOOD BRAIN BARRIER” (VOYAGER THERAPEUTICS, INC., priority 2022, published 2026).
